Experiments:
Test in all cases: liposome co-sedimentation, anti-Sec2 western blot
Assay type in all cases: binding
Sec2p [1] = biological target: T1, Sec2p (Saccharomyces cerevisiae, UniProt P17065); details: read-out: approximate Kd; GST-Sec2p; 0.05-0.5 mM liposomes with 10 mol% PI4P; PBS, 0.4 mg/ml BSA, 25 °C
T1 sequence (P17065 1-759): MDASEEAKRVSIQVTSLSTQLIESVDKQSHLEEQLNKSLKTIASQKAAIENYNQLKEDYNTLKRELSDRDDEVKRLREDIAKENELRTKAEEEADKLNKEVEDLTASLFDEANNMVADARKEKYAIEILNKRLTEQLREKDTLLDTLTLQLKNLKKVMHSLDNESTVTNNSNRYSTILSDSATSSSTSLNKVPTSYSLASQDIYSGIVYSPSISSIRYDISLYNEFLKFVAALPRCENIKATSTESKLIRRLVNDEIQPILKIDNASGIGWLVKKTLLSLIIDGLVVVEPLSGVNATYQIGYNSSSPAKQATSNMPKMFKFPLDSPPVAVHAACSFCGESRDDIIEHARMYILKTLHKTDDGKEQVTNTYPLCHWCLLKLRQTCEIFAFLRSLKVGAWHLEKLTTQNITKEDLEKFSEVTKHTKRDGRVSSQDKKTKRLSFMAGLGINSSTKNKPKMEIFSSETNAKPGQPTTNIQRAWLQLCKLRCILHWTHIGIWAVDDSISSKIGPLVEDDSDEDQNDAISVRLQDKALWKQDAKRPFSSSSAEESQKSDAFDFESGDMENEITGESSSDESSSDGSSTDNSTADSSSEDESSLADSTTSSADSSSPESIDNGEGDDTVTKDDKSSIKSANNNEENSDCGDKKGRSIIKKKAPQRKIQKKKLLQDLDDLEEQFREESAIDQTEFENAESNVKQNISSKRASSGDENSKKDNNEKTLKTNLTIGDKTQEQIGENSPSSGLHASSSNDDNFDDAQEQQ

Sec2p [2] = biological target: T1, Sec2p; details: GST-Sec2; liposomes with 10 mol% PI4P; PBS, 0.4 mg/ml BSA, 25 °C
Sec2p [3] = biological target: T1, Sec2p; details: GST-Sec2; liposomes with 10 mol% PI4P; PBS, 0.4 mg/ml BSA, 25 °C; remark: listed apart in the source
Sec2p [4] = biological target: T1, Sec2p; details: GST-Sec2; liposomes with 10 mol% PI4P; PBS, 0.4 mg/ml BSA, 25 °C; remark: listed apart in the source

PI4P
Kd (Sec2p [1]): ~185 µM
PI4P-binding affinity, % of wildtype (Sec2p [2]): ~ 30%
PI4P-binding, % of wildtype (Sec2p [3]): ~ 10%
PI4P-binding affinity, % of wildtype (Sec2p [4]): ~ 30%

— publication PMC2877039 (Developmental cell, 2010)
